From PubChem BioAssay (NCI) come the findings set out here.

Among the test systems are M14 melanoma; OVCAR-3 ovarian; RXF 393 renal; HCT-15 colon; HCT-116 colon; HCC-2998 colon; EKVX NSCLC; SK-MEL-5 melanoma; SK-OV-3 ovarian; HOP-92 NSCLC; HL-60(TB) leukemia; NCI-H23 lung; MDA-MB-435; ACHN renal; DU-145 prostate; LOX IMVI melanoma; TK-10 renal; MDA-MB-231 breast.
Common to all, as to experiment: DTP human tumour cell line panel, 48 h

Each structure is given as a SMILES string.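 Step 1: Grow cells in 96-well plates. Step 2: Expose to compound for 48 hours at 5 concentrations. Step 3: Interpolate endpoints linearly; if unreached, use highest concentration. TGI: concentration producing complete growth inhibition.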

Broadly, the TGI is the concentration at which net growth stops. The low end stands for greater sensitivity of the cells, the high end for lower sensitivity of the cells. For the compound `CSc1ccc(C2C(Cl)C(=O)N2NC(=O)c2c(Cl)c(Cl)c(Cl)c(Cl)c2-c2nc3ccccc3[nH]2)cc1` (stereo unspecified), the total growth inhibition concentration (TGI) in the test on M14 melanoma came out at 56.7 µM; in the test on OVCAR-3 ovarian it was 50.7 µM; in the test with RXF 393 renal it was 5.01 µM; with HCT-15 colon, 60.4 µM; in the test with HCT-116 colon it was 33.7 µM; in the test with HCC-2998 colon it was 37 µM. Further, the TGI is 37.9 µM with EKVX NSCLC; 35.7 µM in the test with SK-MEL-5 melanoma; 93.4 µM in the test on SK-OV-3 ovarian; 25.1 µM with HOP-92 NSCLC; 55.1 µM in the test on HL-60(TB) leukemia; 43.1 µM in the test on NCI-H23 lung. The TGI in the test on MDA-MB-435 is 37 µM; with ACHN renal it was 71.4 µM; with DU-145 prostate it was 31.3 µM; in the test on LOX IMVI melanoma, 15.6 µM.
On to `O=C1CCC(c2ccccc2)C(O)(C(=O)O)C1` (stereo unspecified), for which the TGI in the test on M14 melanoma, with OVCAR-3 ovarian, with HCT-15 colon, in the test with HCT-116 colon, in the test with HCC-2998 colon and in the test with EKVX NSCLC was greater than 100 µM throughout. Moreover, the TGI with SK-MEL-5 melanoma, in the test with SK-OV-3 ovarian, in the test with HOP-92 NSCLC, in the test with HL-60(TB) leukemia, in the test with TK-10 renal and in the test with NCI-H23 lung was greater than 100 µM each time. Moreover, the TGI with ACHN renal and with LOX IMVI melanoma was greater than 100 µM each time.
Consider `CO/N=C(\C(=O)Nc1cncs1)c1csc(NC(c2ccccc2)(c2ccccc2)c2ccccc2)n1`, for which the concentration for total growth inhibition (TGI) with M14 melanoma, in the test on OVCAR-3 ovarian, in the test on RXF 393 renal, in the test with HCT-15 colon, in the test on HCT-116 colon and with HCC-2998 colon was greater than 10 µM in each case. Further, the concentration for total growth inhibition (TGI) in the test with EKVX NSCLC, with SK-MEL-5 melanoma, with SK-OV-3 ovarian, with HOP-92 NSCLC, with HL-60(TB) leukemia and in the test with TK-10 renal was greater than 10 µM in each case. In addition, the TGI in the test on NCI-H23 lung, in the test on ACHN renal, in the test with DU-145 prostate and in the test on LOX IMVI melanoma was greater than 10 µM each time.
With `Cc1cc(=O)[nH]c(NNC(C#N)c2ccc(O)cc2)n1` (stereo unspecified), the TGI in the test on M14 melanoma, in the test on OVCAR-3 ovarian, in the test on RXF 393 renal, in the test on HCT-15 colon, in the test on HCT-116 colon and in the test on SK-MEL-5 melanoma was greater than 100 µM each time. Further, the total growth inhibition concentration (TGI) in the test on SK-OV-3 ovarian, with HOP-92 NSCLC, in the test with HL-60(TB) leukemia, with TK-10 renal, in the test on NCI-H23 lung and with ACHN renal was greater than 100 µM in each case. In the test on LOX IMVI melanoma, the TGI was greater than 100 µM.
Take `CC1=CC(=O)NCCN1C`: the TGI in the test with M14 melanoma, with OVCAR-3 ovarian, with RXF 393 renal, with HCT-15 colon, in the test on HCT-116 colon and in the test on HCC-2998 colon was greater than 100 µM each time. The TGI with EKVX NSCLC, with SK-MEL-5 melanoma, with SK-OV-3 ovarian, with HOP-92 NSCLC, in the test with HL-60(TB) leukemia and with TK-10 renal was greater than 100 µM throughout. The TGI in the test with NCI-H23 lung, with ACHN renal and in the test on LOX IMVI melanoma was greater than 100 µM each time.
Consider `Cc1nnc([C@@]2(C)CC[C@H]3[C@@H](CC=C4C[C@@H](O)CC[C@@]43C)[C@@H]2CC#N)o1`, for which the concentration for total growth inhibition (TGI) in the test with M14 melanoma, in the test on OVCAR-3 ovarian, with RXF 393 renal, with HCT-15 colon, in the test with HCT-116 colon and in the test on EKVX NSCLC was greater than 100 µM throughout. In addition, the TGI with SK-MEL-5 melanoma, in the test with SK-OV-3 ovarian, in the test with HOP-92 NSCLC, with HL-60(TB) leukemia, in the test on TK-10 renal and in the test on MDA-MB-231 breast was greater than 100 µM in each case. Also, the TGI in the test on NCI-H23 lung, in the test with MDA-MB-435, with ACHN renal and in the test on LOX IMVI melanoma was greater than 100 µM each time.
Turning to `CN(C)CC(CN(C)C)c1ccccn1`, the TGI in the test on M14 melanoma, in the test with OVCAR-3 ovarian, in the test with RXF 393 renal, with HCT-15 colon, in the test with HCT-116 colon and with EKVX NSCLC was greater than 100 µM throughout. Moreover, the total growth inhibition concentration (TGI) with SK-MEL-5 melanoma, in the test with SK-OV-3 ovarian, in the test on HOP-92 NSCLC, with HL-60(TB) leukemia, in the test with TK-10 renal and with MDA-MB-231 breast was greater than 100 µM each time. Further, the TGI in the test with NCI-H23 lung, in the test on MDA-MB-435, in the test with ACHN renal and in the test with LOX IMVI melanoma was greater than 100 µM throughout.
As for `CCOC(=O)CC(NC(=O)c1nc[nH]c1[N+](=O)[O-])C(=O)OCC` (stereo unspecified), the total growth inhibition concentration (TGI) in the test with M14 melanoma, in the test on OVCAR-3 ovarian, in the test on HCT-15 colon, in the test with HCT-116 colon, with HCC-2998 colon and in the test on EKVX NSCLC was greater than 100 µM each time. The TGI in the test with SK-MEL-5 melanoma is greater than 100 µM; in the test on SK-OV-3 ovarian it was greater than 100 µM; in the test with TK-10 renal, 94.1 µM; in the test with NCI-H23 lung it was 49.8 µM; with ACHN renal, greater than 100 µM; in the test with LOX IMVI melanoma, greater than 100 µM.
Take `O=C(CSc1nnc(Cc2ccccc2)o1)Nc1cccc([N+](=O)[O-])c1`: the TGI with M14 melanoma, in the test with OVCAR-3 ovarian, in the test on RXF 393 renal, in the test on HCT-15 colon, in the test with HCT-116 colon and with HCC-2998 colon was greater than 100 µM in each case. Besides, the total growth inhibition concentration (TGI) in the test with SK-MEL-5 melanoma, in the test on SK-OV-3 ovarian, in the test on HL-60(TB) leukemia, in the test with TK-10 renal, with NCI-H23 lung and in the test on ACHN renal was greater than 100 µM each time. The same compound yielded a concentration for total growth inhibition (TGI) in the test with LOX IMVI melanoma greater than 100 µM.
